Data taken from patent US20240358842A1, “PROTEIN STABILIZING COMPOUNDS CONTAINING USP7 LIGANDS” (Stablix, Inc., priority 2021, published 2024).

biological target: USP7 (Homo sapiens, UniProt Q93009); experiment: Ub-Rho cleavage assay; assay type: biochemical; settings: Ub-Rho substrate, recombinant USP7; read-out: Ub (Rho) USP7.1 (IC50)
Method: All fluorescence measurements were performed on a Molecular Devices FlexStation3 with excitation at 480 nm and emission 540 nm, PMT Gain: Medium, Flash Number: 10. […] Assay buffer for all measurements was 50 mM HEPES, 100 mM NaCl, 0.5 mM EDTA, 1 mM TCEP, 0.1 mg/ml BSA, 0.01% Tween-20, pH 7.8. […] Serial dilutions were made with a Mosquito HTS (SPT Labtech) nanoliter liquid handler. 200 nL of each compound in duplicate or DMSO control were transferred to the assay plate. The first two columns served as positive controls. 9.8 μl per well of USP7 working solution was added to the assay plate. Compound+Protein was incubated for 25 min at 25° C. 10 uL of Ub-Rho substrate was added per well and incubated for an additional 15 min at 25° C. Fluorescence was then measured. Percent response relative to DMSO controls was calculated in GraphPad or Scinamic, and the data was fitted to a non-linear regression to determine IC50 values.

USP7, sequence (Q93009 whole entry): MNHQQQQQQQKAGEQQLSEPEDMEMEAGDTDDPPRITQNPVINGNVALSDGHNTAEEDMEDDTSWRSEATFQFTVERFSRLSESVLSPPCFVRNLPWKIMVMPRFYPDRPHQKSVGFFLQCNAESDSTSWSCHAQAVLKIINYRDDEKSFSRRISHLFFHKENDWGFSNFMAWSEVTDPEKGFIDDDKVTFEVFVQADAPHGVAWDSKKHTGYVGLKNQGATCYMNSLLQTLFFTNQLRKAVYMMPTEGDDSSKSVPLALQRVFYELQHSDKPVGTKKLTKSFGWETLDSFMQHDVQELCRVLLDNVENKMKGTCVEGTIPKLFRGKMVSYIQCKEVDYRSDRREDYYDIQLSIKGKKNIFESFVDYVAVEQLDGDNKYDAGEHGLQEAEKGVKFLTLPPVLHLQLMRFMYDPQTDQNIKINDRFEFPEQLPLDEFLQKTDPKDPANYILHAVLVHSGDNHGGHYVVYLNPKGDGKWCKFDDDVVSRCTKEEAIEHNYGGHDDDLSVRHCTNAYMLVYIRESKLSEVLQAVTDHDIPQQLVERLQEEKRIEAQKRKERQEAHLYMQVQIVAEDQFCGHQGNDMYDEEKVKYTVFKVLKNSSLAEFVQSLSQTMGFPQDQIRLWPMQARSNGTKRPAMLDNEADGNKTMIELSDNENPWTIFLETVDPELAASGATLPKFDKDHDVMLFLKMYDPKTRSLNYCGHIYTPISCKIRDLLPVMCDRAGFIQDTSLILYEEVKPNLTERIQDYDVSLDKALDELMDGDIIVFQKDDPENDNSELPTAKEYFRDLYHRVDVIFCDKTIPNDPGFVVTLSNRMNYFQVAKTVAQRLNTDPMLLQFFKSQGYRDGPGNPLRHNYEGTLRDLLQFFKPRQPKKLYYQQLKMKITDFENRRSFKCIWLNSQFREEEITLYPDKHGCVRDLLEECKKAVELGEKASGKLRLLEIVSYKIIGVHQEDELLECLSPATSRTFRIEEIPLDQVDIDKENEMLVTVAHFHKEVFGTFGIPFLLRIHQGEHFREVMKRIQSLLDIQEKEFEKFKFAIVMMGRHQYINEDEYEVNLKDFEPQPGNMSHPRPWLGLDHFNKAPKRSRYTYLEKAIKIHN

| IC50 | Structure (SMILES) |
| --- | --- |
| 1000 to 100000 nM | Cc1cc(Cl)cc(-c2ccnc3cc(CN4C(=O)CCC4=O)sc23)c1OC1CCN(C(=O)CCOCCNC(=O)OC(C)(C)C)CC1 [U32] |
| 1000 to 100000 nM | Cc1cc(Cl)cc(-c2ccnc3cc(CN4C(=O)CCC4=O)sc23)c1OC1CCN(C(=O)CCOCCOCCNC(=O)OC(C)(C)C)CC1 [U33] |
| 1000 to 100000 nM | Cc1cc(Cl)cc(-c2ccnc3cc(CN4C(=O)CCC4=O)sc23)c1OC1CCN(C(=O)CCOCCOCCOCCNC(=O)OC(C)(C)C)CC1 [U34] |
| < 1000 nM | C[C@H](CC(=O)N1CCC(O)(Cn2cnc3cc(NCCN4CCN(CCCNC(=O)OC(C)(C)C)CC4)ccc3c2=O)CC1)c1ccccc1 [U35] |
| < 1000 nM | C[C@H](CC(=O)N1CCC(O)(Cn2cnc(NCCN3CCN(CCN)CC3)cc2=O)CC1)c1ccccc1 [U37] |
| 1000 to 100000 nM | Cn1nc2c(=O)n(CC3(O)CCN(C(=O)C[C@H](c4ccccc4)C(F)(F)F)CC3)cnc2c1Br [U38] |
| < 1000 nM | Cc1cc(Cl)cc(-c2ccnc3cc(CN4C(=O)CCC4=O)sc23)c1OC1CCN(CCCNC(=O)CCNC(=O)OC(C)(C)C)CC1 [U39] |
| < 1000 nM | Cc1cc(Cl)cc(-c2ccnc3cc(CN4C(=O)CCC4=O)sc23)c1OC1CCN(CCCNC(=O)CCCCCCNC(=O)OC(C)(C)C)CC1 [U40] |
| < 1000 nM | Cc1cc(Cl)cc(-c2ccnc3cc(CN4C(=O)CCC4=O)sc23)c1OC1CCN(CCCNC(=O)CCCCCCCNC(=O)OC(C)(C)C)CC1 [U41] |
| 1000 to 100000 nM | CCc1c(-c2ccc(C(=O)NC)nc2)ccc(CNCCNC(=O)OC(C)(C)C)c1-c1ccc(O)cc1 [U43] |
| 1000 to 100000 nM | CCc1c(-c2ccc(C(=O)NCCOCCOCCOCCNC(=O)OC(C)(C)C)nc2)ccc(N)c1C1=CC=C(O)CC1 [U44] |
| 1000 to 100000 nM | CCc1c(-c2ccc(C(=O)NCCCNC(=O)CCCCNC(=O)OC(C)(C)C)nc2)cnc(N)c1-c1ccc(O)cc1 [U45] |
| < 1000 nM | C[C@H](CC(=O)N1CCC(O)(Cn2cnc3cc(NC(=O)CCN4CCN(CCN=[N+]=[N-])CC4)ccc3c2=O)CC1)c1ccccc1 [U46] |
| 1000 to 100000 nM | CCc1c(-c2ccc(C(=O)NC)nc2)cnc(CNC(=O)OC(C)(C)C)c1-c1ccc(O)cc1 [U47] |
| > 100000 nM | CCc1c(-c2ccc(C(=O)NC)cc2)cnc(NC(=O)CN)c1-c1ccc(O)cc1 [U48] |
| 1000 to 100000 nM | CCc1c(-c2ccc(C(=O)NCCCNC(=O)CCCCC(=O)OC(C)(C)C)nc2)cnc(N)c1-c1ccc(O)cc1 [U49] |
| 1000 to 100000 nM | CCc1c(-c2ccc(C(=O)NCCCNC(=O)CCCCCNC(=O)OC(C)(C)C)nc2)cnc(N)c1-c1ccc(O)cc1 [U50] |
| > 100000 nM | CCc1c(-c2ccc(C(=O)NCCCNC(=O)CCCCCCNC(=O)OC(C)(C)C)nc2)cnc(N)c1-c1ccc(O)cc1 [U51] |
| > 100000 nM | CCc1c(-c2ccc(C(=O)NCCCNC(=O)CCCCCCCNC(=O)OC(C)(C)C)nc2)cnc(N)c1-c1ccc(O)cc1 [U52] |
| 1000 to 100000 nM | CCc1c(-c2ccc(C(=O)NCCCNC(=O)CCNC(=O)OC(C)(C)C)nc2)cnc(N)c1-c1ccc(O)cc1 [U53] |
| > 100000 nM | CCc1c(-c2ccc(C(=O)NCCCNC(=O)CCCCCCCCNC(=O)OC(C)(C)C)nc2)cnc(N)c1-c1ccc(O)cc1 [U54] |
| 1000 to 100000 nM | CCc1c(-c2ccc(C(=O)NCCCNC(=O)CCOCCNC(=O)OC(C)(C)C)nc2)cnc(N)c1-c1ccc(O)cc1 [U55] |
| 1000 to 100000 nM | CCc1c(-c2ccc(C(=O)NCCCNC(=O)CCOCCOCCNC(=O)OC(C)(C)C)nc2)cnc(N)c1-c1ccc(O)cc1 [U56] |
| 1000 to 100000 nM | CCc1c(-c2ccc(C(=O)NCCCNC(=O)CCOCCOCCOCCNC(=O)OC(C)(C)C)nc2)cnc(N)c1-c1ccc(O)cc1 [U57] |

biological target: T1, USP7 CD + UBL 1-5 (Homo sapiens, UniProt Q93009); experiment: Surface plasmon resonance assay (SPR); assay type: binding; settings: steady-state KD; read-out: SPR USP7 CD + UBL 1-5 (KD_ss)
T1 construct: USP7 CD +
T1 sequence (Q93009 208-1102 limits assumed): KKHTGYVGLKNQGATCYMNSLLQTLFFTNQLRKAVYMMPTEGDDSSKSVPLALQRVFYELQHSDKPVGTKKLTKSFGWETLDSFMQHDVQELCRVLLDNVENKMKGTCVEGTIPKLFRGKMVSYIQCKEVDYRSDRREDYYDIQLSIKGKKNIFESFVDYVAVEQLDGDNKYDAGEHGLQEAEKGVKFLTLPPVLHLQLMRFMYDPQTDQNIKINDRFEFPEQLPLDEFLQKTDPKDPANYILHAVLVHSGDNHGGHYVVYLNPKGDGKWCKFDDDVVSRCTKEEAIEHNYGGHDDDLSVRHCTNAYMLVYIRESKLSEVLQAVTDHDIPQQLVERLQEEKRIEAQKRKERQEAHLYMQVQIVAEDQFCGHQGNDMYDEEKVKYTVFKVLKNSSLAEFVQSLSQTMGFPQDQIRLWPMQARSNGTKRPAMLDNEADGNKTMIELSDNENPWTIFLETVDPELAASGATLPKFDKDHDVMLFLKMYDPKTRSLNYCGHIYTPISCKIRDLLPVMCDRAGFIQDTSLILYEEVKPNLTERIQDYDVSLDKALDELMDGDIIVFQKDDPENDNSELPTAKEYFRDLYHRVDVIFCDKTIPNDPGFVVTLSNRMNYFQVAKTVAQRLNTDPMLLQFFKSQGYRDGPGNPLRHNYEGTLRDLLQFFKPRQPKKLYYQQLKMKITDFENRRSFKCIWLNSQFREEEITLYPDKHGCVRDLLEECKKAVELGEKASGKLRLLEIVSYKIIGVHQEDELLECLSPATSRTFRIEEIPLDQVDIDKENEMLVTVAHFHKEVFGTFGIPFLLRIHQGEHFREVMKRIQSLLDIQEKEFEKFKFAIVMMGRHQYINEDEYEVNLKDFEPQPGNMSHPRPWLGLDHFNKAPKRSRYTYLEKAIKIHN
Method: The surface plasmon resonance experiments were performed using a Cytiva (formerly GE Healthcare) Biacore 8K equipped with a Series S Sensor Chip SA. The ligands were immobilized via a biotin-modified biotin acceptor peptide. USP7 Ligands were diluted in running buffer (HBS-P+2% DMSO; 10 mM HEPES, pH 7.4, 150 mM NaCl, 1 mM DTT, 0.05% P20, 2% DMSO) to 100 μg/mL and injected at […] until a density between 500-10,000 RU was reached on flow-cell two of each channel, and flow cell one was left blank to serve as a reference surface. Both surfaces were washed until a stable baseline was achieved then 30 startup cycles to condition the surface. To collect kinetic and steady-state binding data, the small molecule analytes were prepared in three-fold dilution series in HBS-P+2% DMSO running buffer. Analytes were injected over both flow cells at a flow rate of […] at 25° C. The complex was allowed to associate for 60 seconds and dissociate for 300 seconds. Data were collected at 10 Hz. The data were fit to a simple 1:1 interaction model global data analysis within Cytiva Biacore Insight Evaluation Software.

| Kd | Structure (SMILES) |
| --- | --- |
| 1000 to 100000 nM | O=C(CCc1ccccc1)N1CCC(O)(Cn2cnc3cc(Cl)ccc3c2=O)CC1 [U26] |
| 1000 to 100000 nM | C=CS(=O)(=O)Nc1ccccc1-c1ccc(C(=O)N2CCC(O)(Cn3cnc4c(cnn4C)c3=O)CC2)cc1 [U27] |
| 1000 to 100000 nM | Cc1cc(Cl)cc(-c2ccnc3cc(CN4C(=O)CCC4=O)sc23)c1OC1CCN(C(=O)CCOCCNC(=O)OC(C)(C)C)CC1 [U32] |
| 1000 to 100000 nM | Cc1cc(Cl)cc(-c2ccnc3cc(CN4C(=O)CCC4=O)sc23)c1OC1CCN(C(=O)CCOCCOCCNC(=O)OC(C)(C)C)CC1 [U33] |
| 1000 to 100000 nM | Cc1cc(Cl)cc(-c2ccnc3cc(CN4C(=O)CCC4=O)sc23)c1OC1CCN(C(=O)CCOCCOCCOCCNC(=O)OC(C)(C)C)CC1 [U34] |
| < 1000 nM | C[C@H](CC(=O)N1CCC(O)(Cn2cnc3cc(NCCN4CCN(CCCNC(=O)OC(C)(C)C)CC4)ccc3c2=O)CC1)c1ccccc1 [U35] |
| < 1000 nM | C[C@H](CC(=O)N1CCC(O)(Cn2cnc(NCCN3CCN(CCN)CC3)cc2=O)CC1)c1ccccc1 [U37] |
| 1000 to 100000 nM | Cn1nc2c(=O)n(CC3(O)CCN(C(=O)C[C@H](c4ccccc4)C(F)(F)F)CC3)cnc2c1Br [U38] |
| < 1000 nM | Cc1cc(Cl)cc(-c2ccnc3cc(CN4C(=O)CCC4=O)sc23)c1OC1CCN(CCCNC(=O)CCNC(=O)OC(C)(C)C)CC1 [U39] |
| < 1000 nM | Cc1cc(Cl)cc(-c2ccnc3cc(CN4C(=O)CCC4=O)sc23)c1OC1CCN(CCCNC(=O)CCCCCCNC(=O)OC(C)(C)C)CC1 [U40] |
| < 1000 nM | Cc1cc(Cl)cc(-c2ccnc3cc(CN4C(=O)CCC4=O)sc23)c1OC1CCN(CCCNC(=O)CCCCCCCNC(=O)OC(C)(C)C)CC1 [U41] |
| 1000 to 100000 nM | CCc1c(-c2ccc(C(=O)NC)nc2)ccc(CNCCNC(=O)OC(C)(C)C)c1-c1ccc(O)cc1 [U43] |
| 1000 to 100000 nM | CCc1c(-c2ccc(C(=O)NCCOCCOCCOCCNC(=O)OC(C)(C)C)nc2)ccc(N)c1C1=CC=C(O)CC1 [U44] |
| 1000 to 100000 nM | CCc1c(-c2ccc(C(=O)NCCCNC(=O)CCCCNC(=O)OC(C)(C)C)nc2)cnc(N)c1-c1ccc(O)cc1 [U45] |
| < 1000 nM | C[C@H](CC(=O)N1CCC(O)(Cn2cnc3cc(NC(=O)CCN4CCN(CCN=[N+]=[N-])CC4)ccc3c2=O)CC1)c1ccccc1 [U46] |
| 1000 to 100000 nM | CCc1c(-c2ccc(C(=O)NC)nc2)cnc(CNC(=O)OC(C)(C)C)c1-c1ccc(O)cc1 [U47] |
| 1000 to 100000 nM | CCc1c(-c2ccc(C(=O)NC)cc2)cnc(NC(=O)CN)c1-c1ccc(O)cc1 [U48] |
| 1000 to 100000 nM | CCc1c(-c2ccc(C(=O)NCCCNC(=O)CCCCC(=O)OC(C)(C)C)nc2)cnc(N)c1-c1ccc(O)cc1 [U49] |
| 1000 to 100000 nM | CCc1c(-c2ccc(C(=O)NCCCNC(=O)CCCCCNC(=O)OC(C)(C)C)nc2)cnc(N)c1-c1ccc(O)cc1 [U50] |
| 1000 to 100000 nM | CCc1c(-c2ccc(C(=O)NCCCNC(=O)CCCCCCNC(=O)OC(C)(C)C)nc2)cnc(N)c1-c1ccc(O)cc1 [U51] |
| 1000 to 100000 nM | CCc1c(-c2ccc(C(=O)NCCCNC(=O)CCCCCCCNC(=O)OC(C)(C)C)nc2)cnc(N)c1-c1ccc(O)cc1 [U52] |
| 1000 to 100000 nM | CCc1c(-c2ccc(C(=O)NCCCNC(=O)CCNC(=O)OC(C)(C)C)nc2)cnc(N)c1-c1ccc(O)cc1 [U53] |
| 1000 to 100000 nM | CCc1c(-c2ccc(C(=O)NCCCNC(=O)CCCCCCCCNC(=O)OC(C)(C)C)nc2)cnc(N)c1-c1ccc(O)cc1 [U54] |
| 1000 to 100000 nM | CCc1c(-c2ccc(C(=O)NCCCNC(=O)CCOCCNC(=O)OC(C)(C)C)nc2)cnc(N)c1-c1ccc(O)cc1 [U55] |
| 1000 to 100000 nM | CCc1c(-c2ccc(C(=O)NCCCNC(=O)CCOCCOCCNC(=O)OC(C)(C)C)nc2)cnc(N)c1-c1ccc(O)cc1 [U56] |
| 1000 to 100000 nM | CCc1c(-c2ccc(C(=O)NCCCNC(=O)CCOCCOCCOCCNC(=O)OC(C)(C)C)nc2)cnc(N)c1-c1ccc(O)cc1 [U57] |
